In publication PMC11647725, “Discovery of 4-(5-Membered)Heteroarylether-6-methylpicolinamide Negative Allosteric Modulators of Metabotropic Glutamate Receptor Subtype 5” (ACS Medicinal Chemistry Letters, 2024):

What was measured:
Muscarinic M2 = Muscarinic M2 (Homo sapiens, UniProt P08172); experiment: Lead Profiling Screen, Eurofins Panlabs; assay type: binding; details: Muscarinic M2, hum, read-out: % inh at 10 μM
Transporter, GABA = experiment: Lead Profiling Screen, Eurofins Panlabs; assay type: binding; details: rat
[1] = Binding in plasma from human (equilibrium dialysis); assay type: in vitro ADME; details: human, plasma, read-out: Human fu,plasma
Procedure: Binding in plasma from rat and human.
Determination of compounds’ fraction unbound (f u) in plasma from rat and human was conducted in vitro via equilibrium dialysis using HTDialysis membrane plates. Dialysis membranes (four paired strips per HTD assay) were hydrated as described by the manufacturer and inserted into the HTD plate, which was assembled and prepared for sample addition by the dispensing of blank buffer (DPBS, 100 µL/well) into the ‘top half’ of each membrane-split well. Each compound was diluted into plasma from each species (5 µM final concentration), which was aliquoted in triplicate to the ‘bottom half’ of the prepared HTD plate wells. The HTD plate was sealed and incubated for 6 hours at 37 °C. Following incubation, each well (both top and bottom halves) were transferred (20 µL) to the corresponding wells of a 96-shallow-well (V-bottom) plate. The daughter plates were then matrix-matched (buffer side wells received equal volume of plasma, and plasma side wells received equal volume of buffer), and extraction solution (120 µL; acetonitrile containing 50 nM carbamazepine as IS) was added to all wells of both daughter plates to precipitate protein and extract test article. The plates were then sealed and centrifuged (3500 rcf) for 10 minutes at ambient temperature. Supernatant (60 µL) from each well of the daughter plates was then transferred to the corresponding wells of new daughter plates (96-shallow-well, V bottom) containing water (Milli-Q, 60 µL/well), and the plates were sealed in preparation for LC-MS/MS analysis (see below). fu was calculated as (analyte to IS MS peak area ratio from Trans-buffer side) / (analyte to IS MS peak area ratio from Cis-plasma side). Mean values for each species were calculated from 3 replicates. […]
Mean values for each species were calculated from 3 replicates. […]
After 5 minutes (pre-incubation), reactions were initiated by addition of nicotinamide adenine dinucleotide phosphate (NADPH, 1 mM final concentration). At selected time intervals (0, 3, 7, 15, 25, and 45 minutes) post-addition of NADPH, aliquots (50 µL) were taken and placed into a 96-shallow-well plate containing ice cold acetonitrile (150 µL) with carbamazepine (IS, 50 nM). The plates were then centrifuged (3000 rcf at 4 °C) for 10 minutes. The supernatants were transferred to a new 96-shallow-well daughter plate and diluted (1:1 v/v) with water (Milli-Q filtered). The plates were then sealed in preparation for LC-MS/MS analysis (see below).

human mGlu4 = biological target: T1, human mGlu4 (Homo sapiens, UniProt Q14833); experiment: mGlu selectivity, calcium mobilization assay; assay type: cell-based
T1 construct: expressed in transfected cells
Procedure: (§1) the presence of 5% CO2, the dye solutions were removed and replaced with assay buffer using a microplate washer, leaving 20 μL of assay buffer in the cell plate. The compound, agonist, and cell plates were placed inside the Functional Drug Screening System (FDSS 7000 or uCell, Hamamatsu, Japan) to measure the calcium flux. Assays were run at 37 °C. A triple add protocol was used to measure Ca kinetics. Briefly, after establishment of a fluorescence baseline for 2 seconds (excitation, 480 nm; emission, 530 nm), 20 µL of test compound was added to the cells and the response was measured for 140 seconds. This was followed by the addition of 10 µL (5X) of an EC20 concentration of Glu agonist, and the response of the cells was measured for 125 seconds. A third addition occurred by adding 12 uL (5X) of an EC80 concentration of Glu agonist and the response of the cells was measured for 90 seconds. […] Calcium fluorescence was recorded as fold over basal fluorescence and raw data were normalized to the maximal response to Glu agonist (ECMax). Compound-evoked decreases in calcium response in the presence of Glu EC80 agonist were determined as inhibition activity, and potency (IC50) and maximum inhibition responses (% GluMin) of compounds were determined using a four-parameter logistical equation using GraphPad Prism (La Jolla, CA) or the Dotmatics software platform (Woburn, MA) : […]

human mGlu1 = biological target: T2, human mGlu1 (Homo sapiens, UniProt Q13255); experiment: mGlu selectivity, calcium mobilization assay; assay type: cell-based
T2 construct: expressed in transfected cells; host or cells: TREx-293, tetracycline-inducible
Procedure: as §1

Rolipram = experiment: Lead Profiling Screen, Eurofins Panlabs; assay type: binding; details: rat
Neuropeptide Y Y1 = Neuropeptide Y Y1 (Homo sapiens, UniProt P25929); experiment: Lead Profiling Screen, Eurofins Panlabs; assay type: binding; details: Neuropeptide Y Y1, hum, read-out: % inh at 10 μM
human mGlu5 = biological target: T3, human mGlu5 (Homo sapiens, UniProt P41594); experiment: Calcium mobilization assay in human mGlu5-HEK293A cells (NAM, EC80 glutamate); assay type: cell-based
T3 construct: expressed in transfected cells

Muscarinic M3 = Muscarinic M3 (Homo sapiens, UniProt P20309); experiment: Lead Profiling Screen, Eurofins Panlabs; assay type: binding; details: Muscarinic M3, hum, read-out: % inh at 10 μM
Sequence of Muscarinic M3 (P20309 whole entry): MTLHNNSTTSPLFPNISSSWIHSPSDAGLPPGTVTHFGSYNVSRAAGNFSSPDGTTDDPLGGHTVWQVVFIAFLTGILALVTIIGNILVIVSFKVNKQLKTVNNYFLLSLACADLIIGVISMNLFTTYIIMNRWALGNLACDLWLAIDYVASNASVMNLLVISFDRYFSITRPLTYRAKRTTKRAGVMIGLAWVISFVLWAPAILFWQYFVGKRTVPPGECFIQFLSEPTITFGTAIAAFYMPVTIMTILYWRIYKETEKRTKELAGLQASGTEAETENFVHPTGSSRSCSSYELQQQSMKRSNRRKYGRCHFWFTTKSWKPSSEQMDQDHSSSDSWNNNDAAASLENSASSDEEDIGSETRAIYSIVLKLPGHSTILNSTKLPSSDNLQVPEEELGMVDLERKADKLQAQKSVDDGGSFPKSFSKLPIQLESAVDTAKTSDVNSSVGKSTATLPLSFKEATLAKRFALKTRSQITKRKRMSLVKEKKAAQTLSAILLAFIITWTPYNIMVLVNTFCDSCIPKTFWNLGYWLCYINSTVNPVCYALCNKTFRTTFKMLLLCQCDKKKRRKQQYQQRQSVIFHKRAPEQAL

T3 sequence (P41594 21-1212): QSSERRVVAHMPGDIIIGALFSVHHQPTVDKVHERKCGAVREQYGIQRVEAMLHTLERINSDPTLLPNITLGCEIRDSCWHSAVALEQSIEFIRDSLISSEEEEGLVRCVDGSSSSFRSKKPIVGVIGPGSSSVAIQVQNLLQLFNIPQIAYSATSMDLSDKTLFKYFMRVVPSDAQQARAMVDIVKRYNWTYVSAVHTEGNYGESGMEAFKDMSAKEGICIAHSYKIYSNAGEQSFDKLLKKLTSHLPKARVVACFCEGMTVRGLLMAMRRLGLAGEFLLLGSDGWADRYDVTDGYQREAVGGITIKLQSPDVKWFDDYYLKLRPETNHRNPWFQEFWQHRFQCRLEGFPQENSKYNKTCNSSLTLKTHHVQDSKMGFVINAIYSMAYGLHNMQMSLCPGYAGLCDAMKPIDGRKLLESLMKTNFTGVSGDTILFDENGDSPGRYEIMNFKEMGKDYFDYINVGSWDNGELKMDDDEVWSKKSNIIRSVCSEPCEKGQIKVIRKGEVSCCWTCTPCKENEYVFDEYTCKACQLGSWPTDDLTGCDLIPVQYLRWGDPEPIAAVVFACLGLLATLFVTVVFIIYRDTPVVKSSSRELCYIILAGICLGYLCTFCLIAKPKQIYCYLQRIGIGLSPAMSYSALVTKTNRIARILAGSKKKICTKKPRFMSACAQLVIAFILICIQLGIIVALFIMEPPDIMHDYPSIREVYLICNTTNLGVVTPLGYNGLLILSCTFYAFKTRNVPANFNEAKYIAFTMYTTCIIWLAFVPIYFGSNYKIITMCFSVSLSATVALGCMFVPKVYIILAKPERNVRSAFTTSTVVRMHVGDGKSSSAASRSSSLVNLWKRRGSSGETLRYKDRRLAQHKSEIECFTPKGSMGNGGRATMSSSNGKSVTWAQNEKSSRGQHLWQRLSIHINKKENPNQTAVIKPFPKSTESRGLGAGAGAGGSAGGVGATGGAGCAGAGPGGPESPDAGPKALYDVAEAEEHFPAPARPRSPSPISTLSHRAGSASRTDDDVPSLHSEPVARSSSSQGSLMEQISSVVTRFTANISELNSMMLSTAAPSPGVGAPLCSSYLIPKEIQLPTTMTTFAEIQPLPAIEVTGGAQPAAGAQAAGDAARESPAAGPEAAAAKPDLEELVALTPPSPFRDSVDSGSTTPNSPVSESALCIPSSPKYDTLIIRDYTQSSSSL
T2 sequence (Q13255 19-1194): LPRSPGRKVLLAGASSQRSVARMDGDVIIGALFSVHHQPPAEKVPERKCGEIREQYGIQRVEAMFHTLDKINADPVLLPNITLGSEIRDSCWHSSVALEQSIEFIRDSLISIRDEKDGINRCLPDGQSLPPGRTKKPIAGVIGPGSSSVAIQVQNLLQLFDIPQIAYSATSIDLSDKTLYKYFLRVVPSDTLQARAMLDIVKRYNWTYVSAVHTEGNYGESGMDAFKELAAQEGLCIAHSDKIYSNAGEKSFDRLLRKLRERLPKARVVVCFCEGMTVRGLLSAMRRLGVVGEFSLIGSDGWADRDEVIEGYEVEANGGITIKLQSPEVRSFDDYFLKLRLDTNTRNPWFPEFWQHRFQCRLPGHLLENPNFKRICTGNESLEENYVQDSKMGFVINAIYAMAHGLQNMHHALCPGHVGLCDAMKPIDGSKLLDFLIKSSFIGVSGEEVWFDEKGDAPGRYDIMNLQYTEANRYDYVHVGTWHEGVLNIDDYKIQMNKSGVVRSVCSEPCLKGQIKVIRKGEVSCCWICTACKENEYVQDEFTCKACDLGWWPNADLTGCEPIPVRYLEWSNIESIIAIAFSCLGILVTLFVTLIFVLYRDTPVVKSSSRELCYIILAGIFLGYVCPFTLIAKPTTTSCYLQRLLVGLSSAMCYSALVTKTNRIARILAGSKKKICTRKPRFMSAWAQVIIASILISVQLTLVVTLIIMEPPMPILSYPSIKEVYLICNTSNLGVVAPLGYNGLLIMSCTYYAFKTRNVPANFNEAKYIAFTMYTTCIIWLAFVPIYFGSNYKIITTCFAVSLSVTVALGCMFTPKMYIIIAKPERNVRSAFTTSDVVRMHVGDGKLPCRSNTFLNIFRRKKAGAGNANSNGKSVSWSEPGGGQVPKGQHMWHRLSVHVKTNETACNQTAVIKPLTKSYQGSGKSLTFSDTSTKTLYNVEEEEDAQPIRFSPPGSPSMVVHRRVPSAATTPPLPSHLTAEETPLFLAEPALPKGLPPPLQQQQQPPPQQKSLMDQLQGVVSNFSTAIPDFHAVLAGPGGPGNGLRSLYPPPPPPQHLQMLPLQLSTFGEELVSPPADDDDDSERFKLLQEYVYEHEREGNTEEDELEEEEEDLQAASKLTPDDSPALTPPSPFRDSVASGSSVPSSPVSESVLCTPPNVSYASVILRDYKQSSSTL
Sequence of Muscarinic M2 (P08172 whole entry): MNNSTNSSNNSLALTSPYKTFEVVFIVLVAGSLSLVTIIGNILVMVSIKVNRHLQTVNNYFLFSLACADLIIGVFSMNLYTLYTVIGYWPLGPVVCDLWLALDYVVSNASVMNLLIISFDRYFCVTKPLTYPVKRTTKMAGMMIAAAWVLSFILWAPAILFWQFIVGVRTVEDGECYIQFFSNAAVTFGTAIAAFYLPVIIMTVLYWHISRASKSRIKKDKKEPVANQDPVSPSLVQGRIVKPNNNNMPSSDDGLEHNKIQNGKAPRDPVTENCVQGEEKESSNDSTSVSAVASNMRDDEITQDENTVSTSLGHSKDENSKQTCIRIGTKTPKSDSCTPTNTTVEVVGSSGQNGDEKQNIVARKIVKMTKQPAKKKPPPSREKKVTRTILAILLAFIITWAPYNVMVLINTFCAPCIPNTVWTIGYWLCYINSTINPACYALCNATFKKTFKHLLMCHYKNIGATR
Sequence of Neuropeptide Y Y1 (P25929 whole entry): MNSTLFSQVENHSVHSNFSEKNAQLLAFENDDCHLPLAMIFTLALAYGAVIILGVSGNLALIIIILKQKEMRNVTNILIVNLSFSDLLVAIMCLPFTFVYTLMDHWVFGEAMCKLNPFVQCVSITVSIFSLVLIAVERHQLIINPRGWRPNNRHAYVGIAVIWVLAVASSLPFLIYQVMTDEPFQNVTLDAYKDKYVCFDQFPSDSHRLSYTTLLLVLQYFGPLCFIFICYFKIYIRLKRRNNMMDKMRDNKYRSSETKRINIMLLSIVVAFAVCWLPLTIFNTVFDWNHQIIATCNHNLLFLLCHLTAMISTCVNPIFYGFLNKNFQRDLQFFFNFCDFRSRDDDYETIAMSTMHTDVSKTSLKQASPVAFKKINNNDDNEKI
T1 sequence (Q14833 33-912): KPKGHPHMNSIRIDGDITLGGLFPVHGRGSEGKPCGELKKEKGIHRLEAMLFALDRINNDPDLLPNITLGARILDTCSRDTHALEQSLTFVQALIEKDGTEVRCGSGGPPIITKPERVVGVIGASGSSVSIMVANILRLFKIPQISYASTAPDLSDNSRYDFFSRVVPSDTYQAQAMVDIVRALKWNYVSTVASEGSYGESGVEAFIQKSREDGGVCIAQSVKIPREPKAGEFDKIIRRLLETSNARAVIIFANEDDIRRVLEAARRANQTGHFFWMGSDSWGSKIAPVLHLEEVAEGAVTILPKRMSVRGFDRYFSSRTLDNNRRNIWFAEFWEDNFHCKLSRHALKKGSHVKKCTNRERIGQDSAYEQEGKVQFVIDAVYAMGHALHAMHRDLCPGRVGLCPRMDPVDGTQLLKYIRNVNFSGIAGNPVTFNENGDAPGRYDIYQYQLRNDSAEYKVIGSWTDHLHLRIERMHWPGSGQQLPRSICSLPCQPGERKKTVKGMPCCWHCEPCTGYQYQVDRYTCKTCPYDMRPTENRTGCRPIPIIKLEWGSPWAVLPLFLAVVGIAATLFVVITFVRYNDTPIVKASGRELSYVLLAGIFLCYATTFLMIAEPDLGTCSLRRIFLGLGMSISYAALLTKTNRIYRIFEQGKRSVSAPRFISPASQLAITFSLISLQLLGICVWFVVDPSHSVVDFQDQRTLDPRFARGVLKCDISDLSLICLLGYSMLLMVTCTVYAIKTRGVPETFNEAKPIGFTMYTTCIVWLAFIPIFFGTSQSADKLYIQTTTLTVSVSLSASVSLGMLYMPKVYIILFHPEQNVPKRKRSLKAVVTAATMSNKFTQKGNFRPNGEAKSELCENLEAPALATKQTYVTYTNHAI

Cc1cc(Oc2cnn(C)c2)cc(C(=O)Nc2ccc(F)cn2)n1 [22iA]
inhibition at 10 µM (Muscarinic M2): -2%
% inh at 10 μM (Transporter, GABA): -1%
fraction unbound at 6 h, 5 µM [1]: 0.059
IC50, human mGlu4 (human mGlu4): inactive
IC50, human mGlu1 (human mGlu1): inactive
% inh at 10 μM (Rolipram): -2%
inhibition at 10 µM (Neuropeptide Y Y1): -2%
fold increase in hmGlu5 potency (human mGlu5; 22fC vs 22bC, 22gA vs 22iA, 22iA vs 22hA, 22iB vs 22hB): 1.6 fold
% GluMin (human mGlu5; efficacy of the NAM to reduce an EC80 response of glutamate, human mGlu5-HEK293A cells): 2%
pIC50 (human mGlu5; human mGlu5-HEK293A cells, EC80 fixed concentration of glutamate, n = 2 in triplicate): 6.49
IC50 (human mGlu5; human mGlu5-HEK293A cells, EC80 fixed concentration of glutamate, read-out: hmGlu5 IC50): 0.325 µM
inhibition at 10 µM (Muscarinic M3): -15%
